From paper PMC11833715, “Identification of a Cannabinoid Receptor 2 Allosteric Site Using Computational Modeling and Pharmacological Analysis” (ACS Pharmacology & Translational Science, 2025)
Entries after “also recorded” stand apart in the source; their conditions may differ. Like-named read-outs stand apart in the source and are kept apart here.

Key:
WT CB2 [1] = molecular target: T1, WT CB2 (Homo sapiens, UniProt P34972); assay: pGlo-Sensor-22F cAMP accumulation assay, WT CB2; type: cell-based; details: for EC50: agonist dose-response on CB2, vehicle control (no Ec2la), read-out: pEC50/pIC50 values (converted)
T1 construct: expressed in transfected cells; host or cells: HEK293
From the text: Compounds were drawn using ChemDraw.

CB2 mutant M157A = CB2 mutant M157A (Homo sapiens, UniProt P34972, M157A); assay: cAMP accumulation assay, CB2 mutant M157A; details: in the presence of JWH133
From the text: (§2) Primers were designed for the following mutations: F72^2.42A, L125^3.44A, L126^3.45A, I129^3.48A, L133^3.52A, T153^4.45A, I156^4.48A, M157^4.49A, L160^4.52A, F197^5.46A, and L201^5.50A (Table S3). Polymerase chain reactions (PCR) using the Bio-Rad T100TM Thermal Cycler and Applied Biosystems Veriti 96 Well Thermal Cycler to introduce the desired mutations within 3× HA-CB2 (cDNA).
(§3) HEK293 (ATCC CRL-1573) adherent cells were passaged using Dulbecco’s Modified Eagle’s Medium (DMEM)-high glucose (Sigma-Aldrich). This DMEM was supplemented with penicillin (100 U/mL), streptomycin (100 μg/mL), and heat inactivated fetal bovine serum (FBS, 10%) (PAN-Biotech). […]
(§4) After 24 h of incubation, the transfected HEK293 cells were then subject to starvation (2 h) with serum-free DMEM (100 μL/well). […] Bioluminescence was then measured using the CLARIOstar Plus Plate Reader (BMG LabTech, Germany). Prior to injecting the treatment ligands, approximately 5–10 basal readings were performed until stabilization was reached. Bioluminescence was measured for a total of 45 cycles (1 min per cycle, 1 s integration time, without filter, a fixed gain of 3000 and autofocus).
(§5) Data from signaling experiments were analyzed using GraphPad Prism, version 9.4.1 software (GraphPad Software, Inc.). […]

CB2 mutant T153A = CB2 mutant T153A (Homo sapiens, UniProt P34972, T153A); assay: cAMP accumulation assay, CB2 mutant T153A; details: in the presence of JWH133
From the text: as §2, §3, §4, §5

CB2 mutant L125A = CB2 mutant L125A (Homo sapiens, UniProt P34972, L125A); assay: cAMP accumulation assay, CB2 mutant L125A; details: in the presence of JWH133
From the text: as §2, §3, §4, §5

CB2 mutant I129A = CB2 mutant I129A (Homo sapiens, UniProt P34972, I129A); assay: cAMP accumulation assay, CB2 mutant I129A; details: in the presence of JWH133
From the text: as §2, §3, §4, §5

CB2 mutant F197A = CB2 mutant F197A (Homo sapiens, UniProt P34972, F197A); assay: cAMP accumulation assay, CB2 mutant F197A; details: in the presence of JWH133
From the text: as §2, §3, §4, §5

CB2 mutant L160A = CB2 mutant L160A (Homo sapiens, UniProt P34972, L160A); assay: cAMP accumulation assay, CB2 mutant L160A; details: in the presence of JWH133
From the text: as §2, §3, §4, §5

CB2 mutant L126A = CB2 mutant L126A (Homo sapiens, UniProt P34972, L126A); assay: cAMP accumulation assay, CB2 mutant L126A; details: in the presence of JWH133
From the text: as §2, §3, §4, §5

CB2 [2] = test system: CB2; design: method as in PMID 29990428; details: CB2, Chinese hamster ovary cells; cited from earlier work
CB1 = test system: CB1; design: method as in PMID 29990428; details: CB1, Chinese hamster ovary cells; cited from earlier work
CB2 double mutants = assay: AlphaLISA SureFire Ultra p-ERK 1/2 assay, CB2 double mutants; type: cell-based, human; details: 1 μM JWH133 + 10 μM Ec2la
Protocol: (§1) Culture media were removed and replaced with allosteric modulator (45 μL/well) prepared in serum-free DMEM and incubated (RT, 30 min). The cells were then stimulated with agonist (5 μL/well) prepared in serum-free DMEM and incubated (RT, 10 min). All subsequent reagents were used from the AlphaLISA SureFire Ultra p-ERK 1/2 (Thr202/Tyr204) Assay Kit (PerkinElmer). The medium was removed, freshly prepared 1× lysis buffer (50 μL/well) was added, and the plate was agitated on a plate shaker (RT, 10 min, 350 rpm). The lysates (10 μL) were transferred to a 384-well OptiPlate (PerkinElmer), and the acceptor mix (5 μL) was added to each well under subdued light. The plate was sealed, covered with foil, and incubated (RT, 1 h). Donor mix (5 μL) was added to each well under subdued light. The plate was sealed, covered with foil, and incubated in the dark (RT, 1 h). The plate was read using CLARIOstar Plus Plate Reader (BMG LabTech, Germany) using standard AlphaLISA settings with an […].

CB2 [3] = test system: CB2; design: method as in PMID 29990428; details: agonists CP 55,940 and 2-AG; cited from earlier work
CB2 mutant F72A = CB2 mutant F72A (Homo sapiens, UniProt P34972, F72A); assay: cAMP accumulation assay, CB2 mutant F72A; details: in the presence of JWH133
From the text: as §2, §3, §4, §5

CB2 mutant L201A = CB2 mutant L201A (Homo sapiens, UniProt P34972, L201A); assay: cAMP accumulation assay, CB2 mutant L201A; details: in the presence of JWH133
From the text: as §2, §3, §4, §5

CB2 single mutants = assay: AlphaLISA SureFire Ultra p-ERK 1/2 assay, CB2 single mutants; type: cell-based, human; details: 1 μM JWH133 + 10 μM Ec2la
Protocol: as §1

WT CB2 [4] = molecular target: T1, WT CB2; assay: AlphaLISA SureFire Ultra p-ERK 1/2 assay, WT CB2; type: cell-based; details: 1 μM JWH133 + 10 μM Ec2la
Protocol: as §1

CB2 mutant L133A = CB2 mutant L133A (Homo sapiens, UniProt P34972, L133A); assay: cAMP accumulation assay, CB2 mutant L133A; details: in the presence of JWH133
From the text: as §2, §3, §4, §5

CB1 receptor [5] = test system: CB1 receptor; design: method as in PMID 22343625; details: cited from earlier work
CB1 receptor [6] = test system: CB1 receptor; design: method as in PMID 22343625; details: CB1, in the presence of orthosteric ligand CP 55,940; cited from earlier work

T1 sequence (P34972 whole entry): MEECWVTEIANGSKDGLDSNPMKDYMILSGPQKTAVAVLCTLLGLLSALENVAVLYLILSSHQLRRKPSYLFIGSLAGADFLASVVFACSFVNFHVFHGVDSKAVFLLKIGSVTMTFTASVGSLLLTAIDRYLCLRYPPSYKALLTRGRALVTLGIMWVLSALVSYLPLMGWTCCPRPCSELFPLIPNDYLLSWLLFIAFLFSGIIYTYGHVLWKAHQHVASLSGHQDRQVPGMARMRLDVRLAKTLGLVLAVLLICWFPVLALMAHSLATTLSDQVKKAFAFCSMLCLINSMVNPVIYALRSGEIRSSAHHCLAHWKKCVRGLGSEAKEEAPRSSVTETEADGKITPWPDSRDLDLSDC
Chain of CB2 mutant I129A (P34972 whole entry I129A): as the sequence (P34972 whole entry) above, with I129A counted along it
Chain of CB2 mutant L160A (P34972 whole entry L160A): as the sequence (P34972 whole entry) above, with L160A counted along it
Chain of CB2 mutant F197A (P34972 whole entry F197A): as the sequence (P34972 whole entry) above, with F197A counted along it
Chain of CB2 mutant L125A (P34972 whole entry L125A): as the sequence (P34972 whole entry) above, with L125A counted along it
Chain of CB2 mutant M157A (P34972 whole entry M157A): as the sequence (P34972 whole entry) above, with M157A counted along it
Chain of CB2 mutant L126A (P34972 whole entry L126A): as the sequence (P34972 whole entry) above, with L126A counted along it
Chain of CB2 mutant T153A (P34972 whole entry T153A): as the sequence (P34972 whole entry) above, with T153A counted along it
Chain of CB2 mutant L201A (P34972 whole entry L201A): as the sequence (P34972 whole entry) above, with L201A counted along it
Chain of CB2 mutant F72A (P34972 whole entry F72A): as the sequence (P34972 whole entry) above, with F72A counted along it
Chain of CB2 mutant L133A (P34972 whole entry L133A): as the sequence (P34972 whole entry) above, with L133A counted along it

CCCCC/C=C\C/C=C\C/C=C\C/C=C\CCCC(=O)OC(CO)CO [2-AG, 2-arachidonoylglycerol]
EC50 (WT CB2 [1]; Figure S2): 0.0483 µM
EC50 (WT CB2 [1]; Figure S3): 0.202 µM

C=C(C)[C@@H]1CCC(C)=C[C@H]1c1c(O)cc(CCCCC)cc1O [CBD, Cannabidiol]
allosteric signal in cAMP assay (CB2 mutant M157A): loss and/or alteration in the allosteric signal
allosteric signal in cAMP assay (CB2 mutant T153A): still demonstrating an allosteric effect
allosteric signal in cAMP assay (CB2 mutant L125A): loss and/or alteration in the allosteric signal
allosteric signal in cAMP assay (CB2 mutant I129A): loss and/or alteration in the allosteric signal
allosteric signal in cAMP assay (CB2 mutant F197A): loss and/or alteration in the allosteric signal
allosteric effect on cAMP signaling (WT CB2 [1]): acts as a NAM
orthosteric activity in cAMP assay (WT CB2 [1]): acting as an agonist
allosteric signal in cAMP assay (CB2 mutant L160A): still demonstrating an allosteric effect
allosteric signal in cAMP assay (CB2 mutant L126A): loss and/or alteration in the allosteric signal

Cc1c(Br)cn(Cc2ccc(F)cc2)c(=O)c1NC(=O)C1CCCCCC1 [Ec2la]
modality in [3H]CP 55,940 binding studies (CB2 [2]): PAM
allosteric signal in cAMP assay (CB2 mutant M157A): loss and/or alteration in allosteric signal
modality in [3H]CP 55,940 binding studies (CB1): PAM
allosteric signal in cAMP assay (CB2 mutant T153A): still demonstrating an allosteric effect
allosteric signal in cAMP assay (CB2 mutant L125A): still demonstrating an allosteric effect
allosteric effect on p-ERK 1/2 signaling (CB2 double mutants): either no effect to the allosteric modulator-induced changes on the signal or a slight decrease in the signal
allosteric signal in cAMP assay (CB2 mutant I129A): loss and/or alteration in allosteric signal
effect on agonist-stimulated [35S]GTPγS binding (CB2 [3]): greatly enhanced
allosteric signal in cAMP assay (CB2 mutant F197A): loss and/or alteration in allosteric signal
allosteric effect on cAMP signaling (WT CB2 [1]): possible PAM-antagonistic effect; also recorded: acts as a PAM
allosteric effect on cAMP signaling at nanomolar concentrations (WT CB2 [1]): did not demonstrate an allosteric effect; also recorded: no allosteric effect
allosteric effect on cAMP signaling (WT CB2 [1]; WT CB2, in the presence of 2-AG, Ec2la 1 and 10 μM): negative allosteric effect; also recorded: negative allosteric shift
allosteric effect on cAMP signaling (WT CB2 [1]; WT CB2, in the presence of CP 55,940, Ec2la 1 and 10 μM): slight negative allosteric effect; also recorded: negative allosteric shift
allosteric effect on cAMP signaling (WT CB2 [1]; WT CB2, in the presence of JWH133, modulator 0.1, 1, 10 μM): acts like a NAM
allosteric signal in cAMP assay (CB2 mutant F72A): loss and/or alteration in allosteric signal
allosteric signal in cAMP assay (CB2 mutant L160A): loss and/or alteration in allosteric signal
allosteric signal in cAMP assay (CB2 mutant L201A): still demonstrating an allosteric effect
allosteric effect on p-ERK 1/2 signaling (CB2 single mutants): either no effect or an increase in the p-ERK 1/2 signal
allosteric effect on p-ERK 1/2 signaling (WT CB2 [4]): acts as a NAM
allosteric signal in cAMP assay (CB2 mutant L133A): loss and/or alteration in allosteric signal
allosteric signal in cAMP assay (CB2 mutant L126A): loss and/or alteration in allosteric signal

CCc1c(C(=O)NCCc2ccc(N3CCCCC3)cc2)[nH]c2ccc(Cl)cc12 [ORG27569]
allosteric effect in ERK 1/2 signaling (CB1 receptor [5]): positive allosteric effect
allosteric effect with radioligand binding (CB1 receptor [6]): negative allosteric effect
